This note sets out measurements from US20140343000A1 (priority 2011, published 2014).

For this test, the system named is recombinant NL4-3 virus (Renilla luciferase in nef, Gag P373S; NLRluc) in MT-2 cells. Put plainly: whole plant or invertebrate. It counts as cell-based, HIV. As to conditions: Renilla, NL43, luciferase activity in cells infected for 4-5 days with NLRluc recombinants, serial dilutions of inhibitor; class symbols (key in Table 1); read-out: EC50. Summed up: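 Virus from 293T transfection, titered in MT-2 by luciferase. MT-2 (RPMI, 10% HI-FBS) infected ± inhibitor serial dilutions, 4-5 d. Readout: Dual Luciferase premix (lysis:reagent:Stop & Glo 2:1:1), immediate luminescence.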
Regarding `C=C(C)[C@@H]1CC[C@]2(NC(=O)N(CCO)CCN(C)C)CC[C@]3(C)[C@H](CC[C@@H]4[C@@]5(C)CC=C(c6ccc(C(=O)O)cc6)C(C)(C)[C@@H]5CC[C@]43C)[C@@H]12` [Example 52, 4-((1R,3aS,5aR,5bR,7aR,11aS,11bR,13aR,13bR)-3a-(3-(2-(dimethylamino)ethyl)-3-(2-hydroxyethyl)ureido)-5a,5b,8,8,11a-pentamethyl-1-(prop-1-en-2-yl)-2,3,3a,4,5,5a,5b,6,7,7a,8,11,11a,11b,12,13,13a,13b-octadecahydro-1H-cyclopenta[a]chrysen-9-yl)benzoic acid], the 50% effective concentration (EC50) – broadly, the concentration needed to bring the measured effect to its halfway point – is less than 100 nM. Take `C=C(C)[C@@H]1CC[C@]2(NC(=O)N(CCN3CCOCC3)CC(=O)O)CC[C@]3(C)[C@H](CC[C@@H]4[C@@]5(C)CC=C(c6ccc(C(=O)O)cc6)C(C)(C)[C@@H]5CC[C@]43C)[C@@H]12` [Example 53, 4-((1R,3aS,5aR,5bR,7aR,11aS,11bR,13aR,13bR)-3a-(3-(carboxymethyl)-3-(2-morpholinoethyl)ureido)-5a,5b,8,8,11a-pentamethyl-1-(prop-1-en-2-yl)-2,3,3a,4,5,5a,5b,6,7,7a,8,11,11a,11b,12,13,13a,13b-octadecahydro-1H-cyclopenta[a]chrysen-9-yl)benzoic acid]: the EC50 is less than 100 nM. Next, `C=C(C)[C@@H]1CC[C@]2(NC(=O)N3CCN(C)CC3)CC[C@]3(C)[C@H](CC[C@@H]4[C@@]5(C)CC=C(c6ccc(C(=O)O)cc6)C(C)(C)[C@@H]5CC[C@]43C)[C@@H]12` [Example 54, 4-((1R,3aS,5aR,5bR,7aR,11aS,11bR,13aR,13bR)-5a,5b,8,8,11a-pentamethyl-3a-(4-methylpiperazine-1-carboxamido)-1-(prop-1-en-2-yl)-2,3,3a,4,5,5a,5b,6,7,7a,8,11,11a,11b,12,13,13a,13b-octadecahydro-1H-cyclopenta[a]chrysen-9-yl)benzoic acid]: less than 100 nM; `C=C(C)[C@@H]1CC[C@]2(NC(=O)N3CCCNCC3)CC[C@]3(C)[C@H](CC[C@@H]4[C@@]5(C)CC=C(c6ccc(C(=O)O)cc6)C(C)(C)[C@@H]5CC[C@]43C)[C@@H]12` [Example 55, 4-((1R,3aS,5aR,5bR,7aR,11aS,11bR,13aR,13bR)-3a-(1,4-diazepane-1-carboxamido)-5a,5b,8,8,11a-pentamethyl-1-(prop-1-en-2-yl)-2,3,3a,4,5,5a,5b,6,7,7a,8,11,11a,11b,12,13,13a,13b-octadecahydro-1H-cyclopenta[a]chrysen-9-yl)benzoic acid]: less than 100 nM. The value for `C=C(C)[C@@H]1CC[C@]2(NC(=O)N3CCNC(=O)C3CC(=O)O)CC[C@]3(C)[C@H](CC[C@@H]4[C@@]5(C)CC=C(c6ccc(C(=O)O)cc6)C(C)(C)[C@@H]5CC[C@]43C)[C@@H]12` (stereo partly drawn) [Example 56, 4-((1R,3aS,5aR,5bR,7aR,11aS,11bR,13aR,13bR)-3a-(2-(carboxymethyl)-3-oxopiperazine-1-carboxamido)-5a,5b,8,8,11a-pentamethyl-1-(prop-1-en-2-yl)-2,3,3a,4,5,5a,5b,6,7,7a,8,11,11a,11b,12,13,13a,13b-octadecahydro-1H-cyclopenta[a]chrysen-9-yl)benzoic acid] was less than 100 nM; that for `C=C(C)[C@@H]1CC[C@]2(NC(=O)N3CCNC(=O)C3)CC[C@]3(C)[C@H](CC[C@@H]4[C@@]5(C)CC=C(c6ccc(C(=O)O)cc6)C(C)(C)[C@@H]5CC[C@]43C)[C@@H]12` [Example 57, 4-((1R,3aS,5aR,5bR,7aR,11aS,11bR,13aR,13bR)-5a,5b,8,8,11a-pentamethyl-3a-(3-oxopiperazine-1-carboxamido)-1-(prop-1-en-2-yl)-2,3,3a,4,5,5a,5b,6,7,7a,8,11,11a,11b,12,13,13a,13b-octadecahydro-1H-cyclopenta[a]chrysen-9-yl)benzoic acid] was less than 100 nM; that for `C=C(C)[C@@H]1CC[C@]2(NC(=O)N(CCN)CC(=O)O)CC[C@]3(C)[C@H](CC[C@@H]4[C@@]5(C)CC=C(c6ccc(C(=O)O)cc6)C(C)(C)[C@@H]5CC[C@]43C)[C@@H]12` [Example 58, 4-((1R,3aS,5aR,5bR,7aR,11aS,11bR,13aR,13bR)-3a-(3-(2-aminoethyl)-3-(carboxymethyl)ureido)-5a,5b,8,8,11a-pentamethyl-1-(prop-1-en-2-yl)-2,3,3a,4,5,5a,5b,6,7,7a,8,11,11a,11b,12,13,13a,13b-octadecahydro-1H-cyclopenta[a]chrysen-9-yl)benzoic acid] was less than 100 nM. Next, `C=C(C)[C@@H]1CC[C@]2(NC(=O)N3CCN(C(=O)OC(C)(C)C)CC3CC(=O)O)CC[C@]3(C)[C@H](CC[C@@H]4[C@@]5(C)CC=C(c6ccc(C(=O)O)cc6)C(C)(C)[C@@H]5CC[C@]43C)[C@@H]12` (stereo partly drawn) [Example 59, 4-((1R,3aS,5aR,5bR,7aR,11aS,11bR,13aR,13bR)-3a-(4-(tert-butoxycarbonyl)-2-(carboxymethyl)piperazine-1-carboxamido)-5a,5b,8,8,11a-pentamethyl-1-(prop-1-en-2-yl)-2,3,3a,4,5,5a,5b,6,7,7a,8,11,11a,11b,12,13,13a,13b-octadecahydro-1H-cyclopenta[a]chrysen-9-yl)benzoic acid]: less than 100 nM; `C=C(C)[C@@H]1CC[C@]2(NC(=O)NCCCCCN(C)C)CC[C@]3(C)[C@H](CC[C@@H]4[C@@]5(C)CC=C(c6ccc(C(=O)O)cc6)C(C)(C)[C@@H]5CC[C@]43C)[C@@H]12` [Example 60, 4-((1R,3aS,5aR,5bR,7aR,11aS,11bR,13aR,13bR)-3a-(3-(5-(dimethylamino)pentyl)ureido)-5a,5b,8,8,11a-pentamethyl-1-(prop-1-en-2-yl)-2,3,3a,4,5,5a,5b,6,7,7a,8,11,11a,11b,12,13,13a,13b-octadecahydro-1H-cyclopenta[a]chrysen-9-yl)benzoic acid]: less than 100 nM; `C=C(C)[C@@H]1CC[C@]2(NC(=O)N(CCO)CCN3CCS(=O)(=O)CC3)CC[C@]3(C)[C@H](CC[C@@H]4[C@@]5(C)CC=C(c6ccc(C(=O)O)cc6)C(C)(C)[C@@H]5CC[C@]43C)[C@@H]12` [Example 65, 4-((1R,3aS,5aR,5bR,7aR,11aS,11bR,13aR,13bR)-3a-(((2-(1,1-dioxido-4-thiomorpholinyl)ethyl)(2-hydroxyethyl)carbamoyl)amino)-1-isopropenyl-5a,5b,8,8,11a-pentamethyl-2,3,3a,4,5,5a,5b,6,7,7a,8,11,11a,11b,12,13,13a,13b-octadecahydro-1H-cyclopenta[a]chrysen-9-yl)benzoic acid]: less than 100 nM. Take `C=C(C)[C@@H]1CC[C@]2(NC(=O)N(CCCO)CCN3CCS(=O)(=O)CC3)CC[C@]3(C)[C@H](CC[C@@H]4[C@@]5(C)CC=C(c6ccc(C(=O)O)cc6)C(C)(C)[C@@H]5CC[C@]43C)[C@@H]12` [Example 66, 4-((1R,3aS,5aR,5bR,7aR,11aS,11bR,13aR,13bR)-3a-(((2-(1,1-dioxido-4-thiomorpholinyl)ethyl)(3-hydroxypropyl)carbamoyl)amino)-1-isopropenyl-5a,5b,8,8,11a-pentamethyl-2,3,3a,4,5,5a,5b,6,7,7a,8,11,11a,11b,12,13,13a,13b-octadecahydro-1H-cyclopenta[a]chrysen-9-yl)benzoic acid]: the EC50 is less than 100 nM. The value for `C=C(C)[C@@H]1CC[C@]2(NC(=O)N(CCOC)CCN3CCS(=O)(=O)CC3)CC[C@]3(C)[C@H](CC[C@@H]4[C@@]5(C)CC=C(c6ccc(C(=O)O)cc6)C(C)(C)[C@@H]5CC[C@]43C)[C@@H]12` [Example 67, 4-((1R,3aS,5aR,5bR,7aR,11aS,11bR,13aR,13bR)-3a-(((2-(1,1-dioxido-4-thiomorpholinyl)ethyl)(2-methoxyethyl)carbamoyl)amino)-1-isopropenyl-5a,5b,8,8,11a-pentamethyl-2,3,3a,4,5,5a,5b,6,7,7a,8,11,11a,11b,12,13,13a,13b-octadecahydro-1H-cyclopenta[a]chrysen-9-yl)benzoic acid] was less than 100 nM; that for `C=C(C)[C@@H]1CC[C@]2(NC(=O)N(CCCOC)CCN3CCS(=O)(=O)CC3)CC[C@]3(C)[C@H](CC[C@@H]4[C@@]5(C)CC=C(c6ccc(C(=O)O)cc6)C(C)(C)[C@@H]5CC[C@]43C)[C@@H]12` [Example 68, 4-((1R,3aS,5aR,5bR,7aR,11aS,11bR,13aR,13bR)-3a-(((2-(1,1-dioxido-4-thiomorpholinyl)ethyl)(3-methoxypropyl)carbamoyl)amino)-1-isopropenyl-5a,5b,8,8,11a-pentamethyl-2,3,3a,4,5,5a,5b,6,7,7a,8,11,11a,11b,12,13,13a,13b-octadecahydro-1H-cyclopenta[a]chrysen-9-yl)benzoic acid] was less than 100 nM; that for `C=C(C)[C@@H]1CC[C@]2(NC(=O)N(CCN3CCS(=O)(=O)CC3)CCN3CCS(=O)(=O)CC3)CC[C@]3(C)[C@H](CC[C@@H]4[C@@]5(C)CC=C(c6ccc(C(=O)O)cc6)C(C)(C)[C@@H]5CC[C@]43C)[C@@H]12` [Example 69, 4-((1R,3aS,5aR,5bR,7aR,11aS,11bR,13aR,13bR)-3a-((bis(2-(1,1-dioxido-4-thiomorpholinyl)ethyl)carbamoyl)amino)-1-isopropenyl-5a,5b,8,8,11a-pentamethyl-2,3,3a,4,5,5a,5b,6,7,7a,8,11,11a,11b,12,13,13a,13b-octadecahydro-1H-cyclopenta[a]chrysen-9-yl)benzoic acid] was less than 100 nM. `C=C(C)[C@@H]1CC[C@]2(NC(N)=O)CC[C@]3(C)[C@H](CC[C@@H]4[C@@]5(C)CC=C(c6ccc(C(=O)O)cc6)C(C)(C)[C@@H]5CC[C@]43C)[C@@H]12` [Example 69-1, 4-((1R,3aS,5aR,5bR,7aR,11aS,11bR,13aR,13bR)-5a,5b,8,8,11a-pentamethyl-1-(prop-1-en-2-yl)-3a-ureido-2,3,3a,4,5,5a,5b,6,7,7a,8,11,11a,11b,12,13,13a,13b-octadecahydro-1H-cyclopenta[a]chrysen-9-yl)benzoic acid]: the EC50 was less than 100 nM.
